# Results from the supplement of paper PMC10307832.
# Legend:
# Experiment in all cases: relative viability (nuclei count vs DMSO), 5 days (fraction); higher = more cells survive
# NCI-H1437 = test system: NCI-H1437
# Outline: (§1)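 A single step with final 0.05% Triton X-100, 1% formaldehyde and 1 ug/ml Hoechst fixed the cells and stained nuclei 5 days after treatment. Lung cancer cell lines in 1536-well plates had been treated by pin tool the day after seeding with one drug alone or a fixed anchor-drug dose plus five library-drug doses (not always all listed) in √10 steps, and nuclei were counted on 4× images. Relative viability is the ratio of nuclei in treated wells to nuclei in vehicle wells, taken as the median of duplicate plates.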
# SK-MES-1 = test system: SK-MES-1
# Outline: as §1
# NCI-H358 = test system: NCI-H358
# Outline: as §1
# HCC-78 = test system: HCC-78
# Outline: as §1
# PC-14 = test system: PC-14
# Outline: as §1
# NCI-H661 = test system: NCI-H661
# Outline: as §1
# HCC-44 = test system: HCC-44
# Outline: as §1
# HCC-827 = test system: HCC-827
# Outline: as §1
# NCI-H727 = test system: NCI-H727
# Outline: as §1
# SK-LU-1 = test system: SK-LU-1
# Outline: as §1
# NCI-H1944 = test system: NCI-H1944
# Outline: as §1
# ChaGo-K-1 = test system: ChaGo-K-1
# Outline: as §1
# NCI-H2342 = test system: NCI-H2342
# Outline: as §1
# LCLC-103H = test system: LCLC-103H
# Outline: as §1
# UMC-11 = test system: UMC-11
# Outline: as §1
# HCC-366 = test system: HCC-366
# Outline: as §1
# NCI-H2085 = test system: NCI-H2085
# Outline: as §1
# EPLC-272H = test system: EPLC-272H
# Outline: as §1
# COR-L 105 = test system: COR-L 105
# Outline: as §1
# HCC-15 = test system: HCC-15
# Outline: as §1
# NCI-H3122 = test system: NCI-H3122
# Outline: as §1
structure (smiles),measurement,setting,value
COCC1(CO)C(=O)C2CCN1CC2 (stereo not given) [PRIMA-1MET] + Cc1cc(Nc2cc(N3CCN(C)CC3)nc(Sc3ccc(NC(=O)C4CC4)cc3)n2)n[nH]1 [Tozasertib] (partner 0.1 µM),relative viability,NCI-H1437; first compound 0.2 µM,0.41
same,relative viability,NCI-H1437; first compound 0.6325 µM,0.408
same,relative viability,NCI-H1437; first compound 2 µM,0.407
same,relative viability,NCI-H1437; first compound 6.325 µM,0.411
same,relative viability,NCI-H1437; first compound 20 µM,0.407
same,relative viability,SK-MES-1; first compound 0.2 µM,1.02
same,relative viability,SK-MES-1; first compound 0.6325 µM,0.888
same,relative viability,SK-MES-1; first compound 2 µM,0.962
same,relative viability,SK-MES-1; first compound 6.325 µM,0.876
same,relative viability,SK-MES-1; first compound 20 µM,0.907
same,relative viability,NCI-H358; first compound 0.2 µM,0.105
same,relative viability,NCI-H358; first compound 2 µM,0.098
same,relative viability,NCI-H358; first compound 6.325 µM,0.117
same,relative viability,NCI-H358; first compound 20 µM,0.0866
same,relative viability,HCC-78; first compound 0.2 µM,0.47
same,relative viability,HCC-78; first compound 0.6325 µM,0.414
same,relative viability,HCC-78; first compound 6.325 µM,0.385
same,relative viability,HCC-78; first compound 20 µM,0.228
same,relative viability,PC-14; first compound 0.2 µM,0.629
same,relative viability,PC-14; first compound 0.6325 µM,0.55
same,relative viability,PC-14; first compound 2 µM,0.519
same,relative viability,PC-14; first compound 6.325 µM,0.714
same,relative viability,PC-14; first compound 20 µM,0.386
same,relative viability,NCI-H661; first compound 0.2 µM,0.369
same,relative viability,NCI-H661; first compound 0.6325 µM,0.354
same,relative viability,NCI-H661; first compound 2 µM,0.357
same,relative viability,NCI-H661; first compound 6.325 µM,0.343
same,relative viability,NCI-H661; first compound 20 µM,0.353
same,relative viability,HCC-44; first compound 0.2 µM,1.18
same,relative viability,HCC-44; first compound 0.6325 µM,0.958
same,relative viability,HCC-44; first compound 2 µM,0.811
same,relative viability,HCC-44; first compound 6.325 µM,1.01
same,relative viability,HCC-44; first compound 20 µM,0.827
same,relative viability,HCC-827; first compound 0.2 µM,0.424
same,relative viability,HCC-827; first compound 0.6325 µM,0.387
same,relative viability,HCC-827; first compound 2 µM,0.376
same,relative viability,HCC-827; first compound 6.325 µM,0.399
same,relative viability,HCC-827; first compound 20 µM,0.379
same,relative viability,NCI-H727; first compound 0.2 µM,0.549
same,relative viability,NCI-H727; first compound 0.6325 µM,0.543
same,relative viability,NCI-H727; first compound 2 µM,0.643
same,relative viability,NCI-H727; first compound 6.325 µM,0.487
same,relative viability,NCI-H727; first compound 20 µM,0.293
same,relative viability,SK-LU-1; first compound 0.2 µM,0.4
same,relative viability,SK-LU-1; first compound 0.6325 µM,0.371
same,relative viability,SK-LU-1; first compound 2 µM,0.319
same,relative viability,SK-LU-1; first compound 6.325 µM,0.344
same,relative viability,SK-LU-1; first compound 20 µM,0.24
same,relative viability,NCI-H1944; first compound 0.2 µM,0.225
same,relative viability,NCI-H1944; first compound 0.6325 µM,0.242
same,relative viability,NCI-H1944; first compound 2 µM,0.222
same,relative viability,NCI-H1944; first compound 6.325 µM,0.243
same,relative viability,NCI-H1944; first compound 20 µM,0.23
same,relative viability,ChaGo-K-1; first compound 0.2 µM,0.209
same,relative viability,ChaGo-K-1; first compound 0.6325 µM,0.2
same,relative viability,ChaGo-K-1; first compound 2 µM,0.213
same,relative viability,ChaGo-K-1; first compound 6.325 µM,0.224
same,relative viability,ChaGo-K-1; first compound 20 µM,0.207
same,relative viability,NCI-H2342; first compound 0.2 µM,0.58
same,relative viability,NCI-H2342; first compound 0.6325 µM,0.684
same,relative viability,NCI-H2342; first compound 2 µM,0.408
same,relative viability,NCI-H2342; first compound 6.325 µM,0.405
same,relative viability,NCI-H2342; first compound 20 µM,0.349
same,relative viability,LCLC-103H; first compound 0.2 µM,0.554
same,relative viability,LCLC-103H; first compound 0.6325 µM,0.453
same,relative viability,LCLC-103H; first compound 2 µM,0.393
same,relative viability,LCLC-103H; first compound 6.325 µM,0.419
same,relative viability,LCLC-103H; first compound 20 µM,0.161
same,relative viability,UMC-11; first compound 0.2 µM,0.215
same,relative viability,UMC-11; first compound 0.6325 µM,0.183
same,relative viability,UMC-11; first compound 2 µM,0.195
same,relative viability,UMC-11; first compound 6.325 µM,0.193
same,relative viability,UMC-11; first compound 20 µM,0.201
same,relative viability,HCC-366; first compound 0.2 µM,0.109
same,relative viability,HCC-366; first compound 0.6325 µM,0.107
same,relative viability,HCC-366; first compound 2 µM,0.107
same,relative viability,HCC-366; first compound 6.325 µM,0.209
same,relative viability,HCC-366; first compound 20 µM,0.0297
same,relative viability,NCI-H2085; first compound 0.2 µM,0.936
same,relative viability,NCI-H2085; first compound 0.6325 µM,0.927
same,relative viability,NCI-H2085; first compound 2 µM,0.84
same,relative viability,NCI-H2085; first compound 6.325 µM,0.828
same,relative viability,NCI-H2085; first compound 20 µM,0.227
same,relative viability,EPLC-272H; first compound 2 µM,0.186
same,relative viability,EPLC-272H; first compound 6.325 µM,0.196
same,relative viability,EPLC-272H; first compound 20 µM,0.105
same,relative viability,COR-L 105; first compound 0.2 µM,0.228
same,relative viability,COR-L 105; first compound 0.6325 µM,0.338
same,relative viability,COR-L 105; first compound 2 µM,0.32
same,relative viability,COR-L 105; first compound 6.325 µM,0.294
same,relative viability,COR-L 105; first compound 20 µM,0.167
same,relative viability,HCC-15; first compound 0.2 µM,0.431
same,relative viability,HCC-15; first compound 0.6325 µM,0.363
same,relative viability,HCC-15; first compound 2 µM,0.356
same,relative viability,HCC-15; first compound 6.325 µM,0.422
same,relative viability,HCC-15; first compound 20 µM,0.151
same,relative viability,NCI-H3122; first compound 0.2 µM,0.524
same,relative viability,NCI-H3122; first compound 0.6325 µM,0.361
same,relative viability,NCI-H3122; first compound 6.325 µM,0.388
same,relative viability,NCI-H3122; first compound 20 µM,0.337
